Experimental data reported in patent publication US10421750B2, “Substituted morpholine derivatives having activity against pain” (ESTEVE PHARMACEUTICALS, S.A., priority 2015, dated 2019).

Target: human σ1 receptor (Homo sapiens (Human), UniProt Q99720)
Assay: Human σ1 receptor radioligand assay ([3H](+)-pentazocine, transfected HEK-293 membranes)
Settings: binding to the σ1 receptor expressed as Ki, [3H](+)-pentazocine 5 nM
Protocol: Human σ1 Receptor Radioligand Assay
To investigate binding properties of test compounds to human σ1 receptor, transfected HEK-293 membranes and [^3H](+)-pentazocine (Perkin Elmer, NET-1056), as the radioligand, were used. The assay was carried out with 7 μg of membrane suspension, 5 nM of [^3H](+)-pentazocine in either absence or presence of either buffer or 10 μM Haloperidol for total and non-specific binding, respectively. Binding buffer contained Tris-HCl 50 mM at pH 8. Plates were incubated at 37° C. for 120 minutes. After the incubation period, the reaction mix was then transferred to MultiScreen HTS, FC plates (Millipore), filtered and plates were washed 3 times with ice-cold 10 mM Tris-HCL (pH7.4). Filters were dried and counted at approximately 40% efficiency in a MicroBeta scintillation counter (Perkin-Elmer) using EcoScint liquid scintillation cocktail

human σ1 receptor, sequence (Q99720 whole entry): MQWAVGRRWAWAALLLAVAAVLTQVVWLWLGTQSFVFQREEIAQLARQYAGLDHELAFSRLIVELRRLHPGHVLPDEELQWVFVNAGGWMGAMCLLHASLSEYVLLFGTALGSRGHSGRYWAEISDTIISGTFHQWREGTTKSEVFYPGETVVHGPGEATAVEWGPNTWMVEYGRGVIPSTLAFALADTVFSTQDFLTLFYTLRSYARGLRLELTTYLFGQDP

Ki | SMILES
≥ 500 nM | CCN1C[C@@H](C2CCN(Cc3ccccc3)CC2)O[C@@H](C)C1=O [Example 23, (2S,6R)-6-(1-benzylpiperidin-4-yl)-4-ethyl-2-methylmorpholin-3-one]
≥ 500 nM | CCN1C[C@H](C2CCN(Cc3ccccc3)CC2)O[C@@H](C)C1=O [Example 24, (2S,6S)-6-(1-benzylpiperidin-4-yl)-4-ethyl-2-methylmorpholin-3-one]
< 100 nM | COc1ccc(CN2CCOC(C3CCN(Cc4ccccc4)CC3)C2)cc1 (stereo not drawn) [Example 49, 2-(1-benzylpiperidin-4-yl)-4-(4-methoxybenzyl)morpholine]
